Consider 14 molecules from patent US11345712B2, “Protein-targeting compounds and pharmaceutical compositions thereof, and their therapeutic applications” (BioTheryX, Inc., priority 2019, dated 2022).

The test system of one data set is IL-6. Nature of the data set: Cytokine modulation assay, LPS-induced PBMCs or CD14+ monocytes: IL-6. Type of data set: cell-based. Conditions: 0.1 μM compound, 100 ng/mL LPS 18-24 h. The procedure: (§1) Frozen primary blood mononuclear cells (PBMCs) or frozen CD14+ mobilized peripheral blood monocytes were quick thawed, washed once with RPMI-1640 (10% FBS/1% Pen-Strep), and plated in 96 well plates at 200,000 cells per well. The cells were pretreated with DMSO only or with a compound for 1 h and then induced with 100 ng/mL lipopolysaccharide (LPS) for 18-24 h. The supernatant was analyzed for IL-1β, IL-6, and TNFα using Meso Scale assays. The negative control wells were treated with DMSO.

In the next data set the test system is IL-1β. Briefly: Cytokine modulation assay, LPS-induced PBMCs or CD14+ monocytes: IL-1β. The format is cell-based. As to conditions: 100 ng/mL LPS 18-24 h; for inhibition at 0.1 µM: 0.1 μM compound; for inhibition at 1 µM: 1 μM compound. How it is done: as §1
For another data set, the target named is T1, IKAROS (Homo sapiens, UniProt Q13422+Q96SW2).
T1 construct: Whole cell extracts were prepared using a radioimmunoprecipitation assay (RIPA) buffer; endogenous in cells; host or cells: MV-4-11
Briefly: Protein degradation assay (Western blot) in MV-4-11 cells: IKAROS. Type of data set: cell-based. As to conditions: 6-8 h, compound concentration 0.1 μM. How it is done:
(§2) MV-4-11 cells were grown in RPMI 1640 media supplemented with 10% fetal bovine serum, streptomycin, and penicillin. The cells were cultured at approximately 10^6 cells per mL and incubated in DMSO or a compound for 6-8 h. Whole cell extracts were prepared using a radioimmunoprecipitation assay (RIPA) buffer. Briefly, 3×10^6 cells were washed once in PBS, and the cell pellets were resuspended in the RIPA buffer and incubated for 15 min on ice. Cells debris was removed by centrifugation and the cleared whole cell lysates were transferred to new tubes for further analysis.
(§3) For Western blot analysis, whole cell protein extracts were separated on 4-12% SDS-polyacrylamide gels, transferred to nitrocellulose, and probed with primary antibodies. Membranes were subsequently washed and probed with IRDYE® secondary antibodies. The signal was detected using an ODYSSEY® Imaging System.
(§4) The following antibodies were used in the assays described herein: anti-eRF3/GSPT1: Abcam, ab126090 (Cambridge, Mass.); anti-Ikaros: Abcam, ab191394 (Cambridge, Mass.); anti-CK1α: Abcam, ab108296 (Cambridge, Mass.); β-actin (8H10D10) mouse monoclonal antibody: Cell Signaling Technology, #3700 (Danvers, Mass.); IRDYE® 680RD goat anti-rabbit antibody: LI-COR, 926-68071 (Lincoln, Nebr.); and IRDYE® 800CW goat anti-mouse antibody: LI-COR, 926-32210 (Lincoln, Nebr.).
(§5) The protein degradation results are summarized in Table 1, wherein A represents a value no less than 80%, B represents a value less than 80% but no less than 50%, C represents a value less than 50% but no less than 25%, and D represents a value less than 25% protein degradation at a compound concentration of 0.1 μM.
Background: In western blotting, separated proteins are transferred to a membrane and probed.

The target in a further data set is T2, GSPT1 (Homo sapiens, UniProt P15170+Q96SW2).
T2 construct: Whole cell extracts were prepared using a radioimmunoprecipitation assay (RIPA) buffer; endogenous in cells; host or cells: MV-4-11
Briefly: Protein degradation assay (Western blot) in MV-4-11 cells: GSPT1. Type of data set: cell-based. As to conditions: 6-8 h, compound concentration 0.1 μM. The procedure: as §2, §3, §4, §5

In a further data set the test system is IL-2. Nature of the data set: IL-2 analysis in anti-CD3 stimulated PBMCs. The format is cell-based, human. Conditions: 0.01 μM compound, PBMCs on anti-CD3 coated plates, 24 h. The procedure: For the IL-2 analysis, 96 well plates were precoated with 1 μg/mL anti-human CD3 antibody (OKT3, eBioscience Inc., San Diego, Calif.). After washed with PBS, the compound was added (50 μL/well), followed by addition of PBMCs diluted at 3-4 million cells/mL (150 μL/well). The plates were incubated for 24 h and the supernatants were collected for IL-2 analysis. IL-2 activity was measured as fold difference from the DMSO control. At a concentration of 0.01 μM, compounds I-1 and I-3 stimulated IL-2 production with 3.7 and 3.9 fold change, respectively, over the DMSO control.

The next data set deals with MOLM-13 cells. Nature of the data set: MOLM-13 cell viability assay (CellTiter-Glo). Type of data set: cell-based. Conditions: 3 days, concentration of 1 μM; for cytotoxicity at 1 µM: Homo sapiens, MOLM-13, 72 h, read-out: Antiproliferative Activity (inhibition, MOLM-13 cell viability). A digest of the protocol:
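Luminescent ATP read-out (CellTiter-Glo, 10 min with shaking) after 3-day compound or DMSO exposure at 37° C, 5% CO2. Cells plated at 2,500/well in RPMI 1640 plus 10% FBS.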

The test system of the next data set is TNF-α. Briefly: Cytokine modulation assay, LPS-induced PBMCs or CD14+ monocytes: TNFα. As to conditions: 100 ng/mL LPS 18-24 h; for inhibition at 0.1 µM: 0.1 μM compound; for inhibition at 1 µM: 1 μM compound. Type of data set: cell-based. The procedure:
as §1

The target of the next data set is T3, CK1α (Homo sapiens, UniProt P48729+Q96SW2).
T3 construct: Whole cell extracts were prepared using a radioimmunoprecipitation assay (RIPA) buffer; endogenous in cells; host or cells: MV-4-11
Briefly: Protein degradation assay (Western blot) in MV-4-11 cells: CK1α. Type of data set: cell-based. Conditions: 6-8 h, compound concentration 0.1 μM. How it is done: as §2, §3, §4, §5

The subject of another data set is THLE-2 cells. Briefly: THLE-2 cell viability assay (CellTiter-Glo). The format is cell-based. Conditions: Homo sapiens, 72 h, 3 days. The procedure: THLE-2 cells were cultured using BEGM™ BULLETKIT™ supplemented with 10% fetal bovine serum, streptomycin, and penicillin. The cells were plated in white walled 96-well plates at 5,000 cells/well. After the cells were incubated in DMSO (control) or a compound for 3 days at 37° C. and 5% CO2, 100 μL of CELLTITER-GLO® (CTG) was added to each well. Following a 10 minutes incubation with shaking, luminescence was measured using an ENVISION® Multimode plate reader. In this example, compound II-1 was compared to reference compound A: […]

T2 sequence (P15170 whole entry): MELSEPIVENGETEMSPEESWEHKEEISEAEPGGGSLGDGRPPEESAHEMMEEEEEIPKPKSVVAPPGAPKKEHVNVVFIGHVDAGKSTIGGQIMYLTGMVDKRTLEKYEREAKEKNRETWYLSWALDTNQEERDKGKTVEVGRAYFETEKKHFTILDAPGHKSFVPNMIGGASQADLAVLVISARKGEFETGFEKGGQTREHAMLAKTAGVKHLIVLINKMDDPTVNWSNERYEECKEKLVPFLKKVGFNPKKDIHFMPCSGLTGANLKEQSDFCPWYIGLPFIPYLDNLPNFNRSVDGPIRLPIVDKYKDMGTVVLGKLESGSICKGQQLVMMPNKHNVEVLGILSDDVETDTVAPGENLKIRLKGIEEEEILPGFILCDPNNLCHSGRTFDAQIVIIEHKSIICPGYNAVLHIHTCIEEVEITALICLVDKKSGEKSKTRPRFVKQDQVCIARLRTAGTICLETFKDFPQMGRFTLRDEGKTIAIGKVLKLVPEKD
T2 sequence (Q96SW2 whole entry): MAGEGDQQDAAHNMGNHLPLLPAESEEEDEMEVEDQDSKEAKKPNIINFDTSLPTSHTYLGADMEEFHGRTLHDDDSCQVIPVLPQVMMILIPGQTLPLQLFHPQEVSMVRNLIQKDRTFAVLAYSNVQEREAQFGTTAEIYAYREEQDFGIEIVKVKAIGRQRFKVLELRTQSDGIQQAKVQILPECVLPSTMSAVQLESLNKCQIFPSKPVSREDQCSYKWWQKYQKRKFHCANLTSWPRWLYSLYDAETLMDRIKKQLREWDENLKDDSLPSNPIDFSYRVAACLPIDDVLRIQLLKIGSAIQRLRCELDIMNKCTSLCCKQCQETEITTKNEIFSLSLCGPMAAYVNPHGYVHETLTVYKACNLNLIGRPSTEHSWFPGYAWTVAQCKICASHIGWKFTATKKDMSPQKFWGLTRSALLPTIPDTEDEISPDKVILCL
T2 sequence (Q16531 whole entry partner): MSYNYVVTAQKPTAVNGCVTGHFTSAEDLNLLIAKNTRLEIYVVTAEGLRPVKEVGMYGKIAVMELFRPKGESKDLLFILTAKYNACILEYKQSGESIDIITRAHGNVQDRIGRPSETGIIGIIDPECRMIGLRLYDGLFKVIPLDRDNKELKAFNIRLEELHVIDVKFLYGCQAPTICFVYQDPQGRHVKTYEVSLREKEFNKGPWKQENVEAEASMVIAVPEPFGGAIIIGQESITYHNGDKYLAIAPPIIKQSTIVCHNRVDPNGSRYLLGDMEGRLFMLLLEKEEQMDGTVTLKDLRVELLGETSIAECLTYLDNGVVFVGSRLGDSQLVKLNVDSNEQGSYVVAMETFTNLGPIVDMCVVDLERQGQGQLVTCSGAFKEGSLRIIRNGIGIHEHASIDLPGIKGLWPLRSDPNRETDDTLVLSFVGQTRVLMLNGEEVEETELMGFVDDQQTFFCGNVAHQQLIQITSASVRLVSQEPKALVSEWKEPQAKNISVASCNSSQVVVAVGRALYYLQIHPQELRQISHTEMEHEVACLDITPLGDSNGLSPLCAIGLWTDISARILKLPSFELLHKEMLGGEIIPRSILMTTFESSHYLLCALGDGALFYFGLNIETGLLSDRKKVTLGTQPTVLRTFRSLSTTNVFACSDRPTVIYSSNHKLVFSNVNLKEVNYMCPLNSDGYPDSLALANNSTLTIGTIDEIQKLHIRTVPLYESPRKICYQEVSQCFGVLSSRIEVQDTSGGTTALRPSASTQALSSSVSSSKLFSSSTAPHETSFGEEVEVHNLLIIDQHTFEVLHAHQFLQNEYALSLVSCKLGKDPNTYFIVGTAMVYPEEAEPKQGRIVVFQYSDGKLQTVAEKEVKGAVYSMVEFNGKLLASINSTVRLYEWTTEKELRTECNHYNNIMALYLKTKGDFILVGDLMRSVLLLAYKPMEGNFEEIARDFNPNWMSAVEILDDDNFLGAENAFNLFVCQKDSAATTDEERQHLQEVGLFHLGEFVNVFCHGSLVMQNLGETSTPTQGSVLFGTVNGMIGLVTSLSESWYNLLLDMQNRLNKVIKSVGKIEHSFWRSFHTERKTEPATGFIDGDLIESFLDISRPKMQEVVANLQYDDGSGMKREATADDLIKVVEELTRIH
T1 sequence (Q13422 whole entry): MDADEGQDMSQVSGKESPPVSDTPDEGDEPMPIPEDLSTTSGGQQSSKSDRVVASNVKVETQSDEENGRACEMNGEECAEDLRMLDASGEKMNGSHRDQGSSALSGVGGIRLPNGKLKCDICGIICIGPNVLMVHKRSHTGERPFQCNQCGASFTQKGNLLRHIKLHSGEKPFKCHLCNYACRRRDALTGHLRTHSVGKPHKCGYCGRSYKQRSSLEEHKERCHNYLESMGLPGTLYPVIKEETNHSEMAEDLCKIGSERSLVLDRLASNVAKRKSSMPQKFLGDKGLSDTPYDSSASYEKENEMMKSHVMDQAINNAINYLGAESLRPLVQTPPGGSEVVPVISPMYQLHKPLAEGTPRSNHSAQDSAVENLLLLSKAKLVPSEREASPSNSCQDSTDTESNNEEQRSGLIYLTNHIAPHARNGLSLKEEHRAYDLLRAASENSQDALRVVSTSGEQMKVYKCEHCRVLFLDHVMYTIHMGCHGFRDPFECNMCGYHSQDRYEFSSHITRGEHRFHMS
T1 sequence (Q96SW2 whole entry): as the sequence (Q96SW2 whole entry) above
T1 sequence (Q16531 whole entry partner): as the sequence (Q16531 whole entry partner) above
T3 sequence (P48729 whole entry): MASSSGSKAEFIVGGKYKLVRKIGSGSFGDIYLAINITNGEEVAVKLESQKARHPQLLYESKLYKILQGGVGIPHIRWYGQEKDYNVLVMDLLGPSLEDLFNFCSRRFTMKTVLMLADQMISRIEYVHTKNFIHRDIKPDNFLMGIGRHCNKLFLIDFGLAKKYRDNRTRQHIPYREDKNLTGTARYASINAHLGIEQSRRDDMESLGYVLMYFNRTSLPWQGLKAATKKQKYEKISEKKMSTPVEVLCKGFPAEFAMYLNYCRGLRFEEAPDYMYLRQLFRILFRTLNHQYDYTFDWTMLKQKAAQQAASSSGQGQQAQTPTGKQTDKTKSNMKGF
T3 sequence (Q96SW2 whole entry): as the sequence (Q96SW2 whole entry) above
T3 sequence (Q16531 whole entry partner): as the sequence (Q16531 whole entry partner) above

A word on the inhibition: it is the percentage by which the read-out fell short of the control. A lower inhibition goes with a response near the control. With `O=C1CCC(N2Cc3c(csc3CNC(=O)C(=O)c3ccc(C4(C(F)(F)F)CC4)cc3)C2=O)C(=O)N1` (stereo not drawn) [Compound I-3, N-((5-(2,6-dioxopiperidin-3-yl)-4-oxo-5,6-dihydro-4H-thieno[3,4-c]pyrrol-1-yl)methyl)-2-oxo-2-(4-(1-(trifluoromethyl)cyclopropyl)phenyl)acetamide], the inhibition at 0.1 µM in the data set with IL-6 was 25 to 50%; in the data set on IL-1β, > 80%; in the data set with TNF-α, > 80%. In addition, the inhibition at 1 µM in the data set with IL-1β and in the data set with TNF-α was > 80% throughout. Moreover, the “Protein Degradation IKAROS” value at IKAROS is on record as “A (a value no less than 80%)”. Also, on GSPT1, the “Protein Degradation GSPT1” value is given as “B (a value less than 80% but no less than 50%)”. Further, in the data set with IL-2, the “IL-2 production, fold change over the DMSO control” value was found to be 3.9 fold. In addition, the cytotoxicity at 1 µM in the data set on MOLM-13 cells is > 80%. In addition, the “Protein Degradation CK1α” value on CK1α is recorded as “A (a value no less than 80%)”.
Regarding `O=C1CCC(N2Cc3cc(CNC(=O)C(=O)c4ccc(C5(C(F)(F)F)CC5)cc4)ccc3C2=O)C(=O)N1` (stereo not drawn) [Compound I-5, N-((2-(2,6-dioxopiperidin-3-yl)-1-oxoisoindolin-5-yl)methyl)-2-oxo-2-(4-(1-(trifluoromethyl)cyclopropyl)phenyl)acetamide], the “Protein Degradation IKAROS” value at IKAROS is given as “A (a value no less than 80%)”. Besides, at GSPT1, the “Protein Degradation GSPT1” value is “A (a value no less than 80%)”. For the same molecule, in the data set on MOLM-13 cells, the cytotoxicity at 1 µM was > 80%. Besides, the “Protein Degradation CK1α” value on CK1α is reported as “C (a value less than 50% but no less than 25%)”.
For `CC(C)c1ccc(C(=O)C(=O)NCc2scc3c2CN(C2CCC(=O)NC2=O)C3=O)s1` (stereo not drawn) [Compound I-4, N-((5-(2,6-dioxopiperidin-3-yl)-4-oxo-5,6-dihydro-4H-thieno[3,4-c]pyrrol-1-yl)methyl)-2-(5-isopropylthiophen-2-yl)-2-oxoacetamide], the inhibition at 0.1 µM with IL-1β and in the data set with TNF-α was > 80% in each case. The inhibition at 1 µM in the data set on IL-1β and with TNF-α was > 80% each time. Moreover, at IKAROS, the “Protein Degradation IKAROS” value was “A (a value no less than 80%)”. On GSPT1, the “Protein Degradation GSPT1” value was “C (a value less than 50% but no less than 25%)”. The cytotoxicity at 1 µM in the data set with MOLM-13 cells was > 80%.
Consider `CC(C)(C)c1ccc(C(=O)C(=O)NCc2ccc3c(c2)CN(C2CCC(=O)NC2=O)C3=O)cc1` (stereo not drawn) [Compound I-2, 2-(4-(tert-butyl)phenyl)-N-((2-(2,6-dioxopiperidin-3-yl)-1-oxoisoindolin-5-yl)methyl)-2-oxoacetamide], for which the “Protein Degradation IKAROS” value on IKAROS is “A (a value no less than 80%)”. Moreover, at GSPT1, the “Protein Degradation GSPT1” value is given as “A (a value no less than 80%)”. In addition, the cytotoxicity at 1 µM in the data set on MOLM-13 cells was > 80%. Moreover, the “Protein Degradation CK1α” value on CK1α is on record as “B (a value less than 80% but no less than 50%)”.
For orientation: IC50 means the point on the concentration scale where inhibition reaches its midpoint. Low values mean greater potency, high ones weaker potency. `Cc1ccc(NC(=O)NCc2cc3c(s2)C(=O)N(C2CCC(=O)NC2=O)C3)cc1N(C)C` (stereo not drawn) [II-1, 1-(3-(dimethylamino)-4-methylphenyl)-3-((5-(2,6-dioxopiperidin-3-yl)-6-oxo-5,6-dihydro-4H-thieno[2,3-c]pyrrol-2-yl)methyl)urea]: the inhibition at 1 µM with IL-1β and in the data set on TNF-α was 25 to 50% in each case. In addition, the “Protein Degradation GSPT1” value at GSPT1 was “B (a value less than 80% but no less than 50%)”. For the same molecule, the cytotoxicity at 1 µM with MOLM-13 cells is > 80%. For the same molecule, in the data set on THLE-2 cells, the IC50 came to 8.9 µM.
`O=C1CCC(N2Cc3c(csc3CNC(=O)C(=O)c3ccc(CN4CCOCC4)cc3)C2=O)C(=O)N1` (stereo not drawn) [Compound I-26, 2-(4-(morpholinomethyl)phenyl)-N-((5-(2,6-dioxopiperidin-3-yl)-4-oxo-5,6-dihydro-4H-thieno[3,4-c]pyrrol-1-yl)methyl)-2-oxoacetamide]: the cytotoxicity at 1 µM in the data set with MOLM-13 cells is < 25%.
Same read-out and setting: the result for `CN1CCC(c2ccc(C(=O)C(=O)NCc3scc4c3CN(C3CCC(=O)NC3=O)C4=O)cc2)CC1` (stereo not drawn) [Compound I-31, N-((5-(2,6-dioxopiperidin-3-yl)-4-oxo-5,6-dihydro-4H-thieno[3,4-c]pyrrol-1-yl)methyl)-2-(4-(1-methylpiperidin-4-yl)phenyl)-2-oxoacetamide] reads < 25%.
Take `CC(C)(C)c1ccc(C(=O)C(=O)NCc2cc3c(s2)C(=O)N(C2CCC(=O)NC2=O)C3)cc1` (stereo not drawn) [Compound I-45, 2-(4-(tert-butyl)phenyl)-N-((5-(2,6-dioxopiperidin-3-yl)-6-oxo-5,6-dihydro-4H-thieno[2,3-c]pyrrol-2-yl)methyl)-2-oxoacetamide]: in the data set with MOLM-13 cells, the “Antiproliferative Activity (inhibition, MOLM-13 cell viability)” value is given as “B (a value less than 80% but no less than 50%)”.
In the case of `O=C1CCC(N2Cc3c(CNC(=O)C(=O)c4ccc5ccccc5c4)cccc3C2=O)C(=O)N1` (stereo not drawn) [Compound I-96, N-((2-(2,6-dioxopiperidin-3-yl)-1-oxoisoindolin-4-yl)methyl)-2-(naphthalen-2-yl)-2-oxoacetamide], the cytotoxicity at 1 µM with MOLM-13 cells was < 25%.
Take `CC(C)[C@@H](N)C(=O)OCN1C(=O)CCC(N2Cc3c(CNC(=O)C(=O)c4ccc(C5(C(F)(F)F)CC5)cc4)cccc3C2=O)C1=O` (stereo partly drawn) [Compound I-64, (2,6-dioxo-3-(1-oxo-4-((2-oxo-2-(4-(1-(trifluoromethyl)cyclopropyl)-phenyl)acetamido)methyl)isoindolin-2-yl)piperidin-1-yl)methyl D-valinate]: the cytotoxicity at 1 µM in the data set with MOLM-13 cells is > 80%.
Same read-out and setting: the result for `O=C1CCC(N2Cc3cc(CNC(=O)Nc4cccc(N5CCCC5)c4)sc3C2=O)C(=O)N1` (stereo not drawn) [II-99, 1-((5-(2,6-dioxopiperidin-3-yl)-6-oxo-5,6-dihydro-4H-thieno[2,3-c]pyrrol-2-yl)methyl)-3-(3-(pyrrolidin-1-yl)phenyl)urea] reads > 80%.
On to `Cc1ccc(C(=O)C(=O)NCc2ccc3c(c2)CN(C2CCC(=O)NC2=O)C3=O)cc1Cl` (stereo not drawn) [Compound I-53, 2-(3-chloro-4-methylphenyl)-N-((2-(2,6-dioxopiperidin-3-yl)-1-oxoisoindolin-5-yl)methyl)-2-oxoacetamide], for which, in the data set with MOLM-13 cells, the cytotoxicity at 1 µM is > 80%.
For `CN(C)CCOc1cccc(CC(=O)NCc2scc3c2CN(C2CCC(=O)NC2=O)C3=O)c1` (stereo not drawn) [II-77, 2-(3-(2-(dimethylamino)ethoxy)phenyl)-N-((5-(2,6-dioxopiperidin-3-yl)-4-oxo-5,6-dihydro-4H-thieno[3,4-c]pyrrol-1-yl)methyl)acetamide], the cytotoxicity at 1 µM with MOLM-13 cells was < 25%.
Consider `Cc1ccc(NC(=O)NCc2cc3c(s2)C(=O)N(C2CCC(=O)NC2=O)C3)cc1Cl` (stereo not drawn) [reference compound A, reference compound], for which the IC50 in the data set with THLE-2 cells was 0.8 µM.
